{"source": "patent US20230346744A1", "about": "“SULFUR-CONTAINING COMPOUND USEFUL FOR TREATING OR PREVENTING PRESBYOPIA” (SANTEN PHARMACEUTICAL CO., LTD., priority 2020, published 2023)", "assay_type_in_all_cases": "in vivo", "key": {"C57BL/6J mice [1]": {"test_system": "C57BL/6J mice", "assay": "Pharmacological Test-5: once-daily instillation of Compounds 5, 6 and 7 for 2 weeks, lens elasticity", "settings": "once per day for 14 days; for Lens elasticity improvement: 2.5 μL/eye, 8-month-old mice, vs vehicle control", "procedure": "The effect of once-daily instillation of each of Compounds 5, 6, and 7 for 2 weeks on the lens elasticity was examined.\n(§1) A vehicle comprising 1.0% (w/v) of CO35, 0.1% (w/v) of ethyl pyruvate, 0.269% (w/v) of sodium dihydrogenphosphate monohydrate (NaH2 PO4.H2O), 0.433% (w/v) of disodium hydrogenphosphate (Na2HPO4), 0.2% (w/v) of hydroxypropyl methylcellulose, 0.5% (w/v) of NaCl, and purified water (appropriate amount) was prepared.\nCompound 5 was stirred with the addition of the vehicle to give a 0.1% (w/v) suspension. The resulting 0.1% (w/v) suspension was diluted with the vehicle to give a 0.03% (w/v) suspension.\nCompound 6 was stirred with the addition of the vehicle to give a 0.1% (w/v) suspension. The resulting 0.1% (w/v) a suspension was diluted with the vehicle to give a 0.03% (w/v) suspension.\nCompound 7 was stirred with the addition of the vehicle to give a 0.1% (w/v) suspension.\n(§2) After preparation, all were refrigerated.\nEVO6 was stirred with the addition of the vehicle to give a 0.03% (w/v) solution, which was for comparison in the test for Compounds 5, 6 and 7. After preparation, it was refrigerated.\n1) Each test sample (2.5 μL/eye) was instilled into both eyes of 8-month-old C57BL/6J mice with a Pipetman once per day (around 13:30) for 14 days.\n(§3) 2) After the final instillation, the mice were euthanized by carbon dioxide inhalation, and then the eyeballs were extracted and rinsed with Hank's balanced salt solution (HBSS).\n(§4) 3) The sclera near the optic nerve was cut with a razor, the lens was removed through the incision, and the removed lens was immersed in HBSS.\n(§5) 4) The lens was placed on a glass slide, and an all-in-one fluorescence microscope BZ-9000 (Keyence) was used to capture an image of the lens (Image a).\n(§6) 5) Next, one cover glass (Corning(registered trade mark) 22×22 mm Square) was placed on the lens, and an image in which the thickness of the lens changed due to the weight was similarly captured (Image b).\n6) A change in the lens diameter was calculated from Equation 1 wherein the lens diameter of Image a is subtracted from the lens diameter of Image b, as described below. Then, the lens elasticity improvement of each sample group compared with the vehicle control group was calculated from Equation 2 described below. The mean value of each group was based on 8 eyes.\n(§7) Change in lens diameter=Lens diameter in Image b of each test sample−Lens diameter in Image a of each test sample Equation 1\n(§8) Lens elasticity improvement of each sample group=Mean change in lens diameter of each Test sample group−Mean change in lens diameter of Vehicle control group Equation 2"}, "C57BL/6J mice [2]": {"test_system": "C57BL/6J mice", "assay": "Pharmacological Test-4: once-daily instillation of Compounds 3 and 4 for 2 weeks, lens elasticity", "settings": "once per day for 14 days; for Lens elasticity improvement: 2.5 μL/eye, 8-month-old mice, vs vehicle control", "procedure": "The effect of once-daily instillation of each of Compounds 3 and 4 for 2 weeks on the lens elasticity was examined.\nas §1\nCompound 3 was stirred with the addition of the vehicle to give a 0.03% (w/v) suspension.\nCompound 4 was stirred with the addition of the vehicle to give a 0.1% (w/v) suspension. The resulting 0.1% (w/v) suspension was diluted with the vehicle to give a 0.03% (w/v) suspension. Further, the resulting 0.03% (w/v) suspension was diluted with the vehicle to give a 0.01% (w/v) suspension.\nas §2\n1) Each test sample (2.5 μL/eye) was instilled into both eyes of 8-month-old\nC57BL/6J mice with a Pipetman once per day (around 9:00) for 14 days.\nas §3, §4, §5, §6\n(§9) 6) A change in the lens diameter was calculated from Equation 1 wherein the lens diameter of Image a is subtracted from the lens diameter of Image b, as described below. Then, the lens elasticity improvement of each sample group compared with the vehicle control group was calculated from Equation 2 described below. The mean value of each group was based on 10 eyes.\nas §7, §8"}, "C57BL/6J mice [3]": {"test_system": "C57BL/6J mice", "assay": "Pharmacological Test-3: once-daily instillation of Compounds 1, 2 and 3 for 2 weeks, lens elasticity", "settings": "once per day for 14 days; for Lens elasticity improvement: 2.5 μL/eye, 8-month-old mice, vs vehicle control", "procedure": "The effect of once-daily instillation of each of Compounds 1, 2 and 3 for 2 weeks on the lens elasticity was examined.\nas §1\nEach of Compounds 1 and 2 was stirred with the addition of the vehicle to give a 0.1% (w/v) solution.\nTo Compound 3 was added the vehicle to give a 0.1% (w/v) suspension. The resulting 0.1% (w/v) suspension was diluted with the vehicle to give a 0.03% (w/v) solution. Further, the resulting 0.03% (w/v) solution was diluted with the vehicle to give a 0.01% (w/v) solution.\nAfter preparation, all were frozen.\n1) Each test sample (2.5 μL/eye) was instilled into both eyes of 8-month-old C57BL/6J mice with a Pipetman once per day (around 9:00) for 14 days.\nas §3, §4, §5, §6, §9, §7, §8"}, "Japanese White rabbit": {"test_system": "Japanese White rabbit", "assay": "Ocular irritation test-2 (McDonald-Shadduck method)", "parameters": "key to Irritation Score of anterior segment of the eye: Discharge / Irritation Score of anterior segment of the eye: Anterior chamber flare / Irritation Score of anterior segment of the eye: Light reflex / Irritation Score of anterior segment of the eye: Iris / Irritation Score of anterior segment of the eye: Corneal opacity / Irritation Score of anterior segment of the eye: Corneal angiogenesis / Irritation Score of anterior segment of the eye: Corneal epithelial disorder / Irritation Score of anterior segment of the eye: Conjunctival hyperemia / Irritation Score of anterior segment of the eye: Conjunctival edema: —: No noteworthy findings", "settings": "50 μL/eye, 10 times at 30-minute intervals; for Irritation Score of anterior segment of the eye: Anterior chamber flare / Irritation Score of anterior segment of the eye: Conjunctival edema / Irritation Score of anterior segment of the eye: Corneal angiogenesis / Irritation Score of anterior segment of the eye: Corneal opacity / Irritation Score of anterior segment of the eye: Discharge / Irritation Score of anterior segment of the eye: Iris / Irritation Score of anterior segment of the eye: Light reflex / Irritation Score of anterior segment of the eye: Conjunctival hyperemia: 1 hour after the final instillation; for Irritation Score of anterior segment of the eye: Conjunctival hyperemia: scale +1 slight, +2 moderate, +3 severe; for Irritation Score of anterior segment of the eye: Corneal epithelial disorder: 3 hours after the final instillation", "procedure": "A vehicle eye drop and 0.01% (w/v) and 0.1% (w/v) Compound 4 eye drops were prepared in the same manner as Preparation of Test sample in Pharmacological test-4.\nThe vehicle eye drop, and the 0.01% (w/v) and 0.1% (w/v) Compound 4 eye drops were each instilled into one eye of a Japanese White rabbit at a dose volume of 50 μL/eye with pipette 10 times at 30-minute intervals. One hour after the final instillation, ocular irritation of anterior segment of the eye was evaluated using a slit lamp according to the McDonald-Shadduck method. Observation for corneal epithelial disorder was conducted 3 hours after the final instillation.\nThe ocular irritation of anterior segment of the eye was scored according to the following criteria: • +1: slight; +2: moderate; +3: severe"}, "[4]": {"settings": "concentrations of 0.03% and 0.1%"}, "[5]": {"settings": "all of the concentrations of 0.01%, 0.03% and 0.1%"}}}
{"smiles": "OCCCCCCC1CCSS1", "note": "(centres unmarked) [Compound 5, 6-(1,2-Dithiolan-3-yl)hexan-1-ol]", "values": [{"measurement": "Lens elasticity improvement", "setting": "C57BL/6J mice [1]; 0.03% sample", "value": 22.3, "unit": "μm"}, {"measurement": "Lens elasticity improvement", "setting": "C57BL/6J mice [1]; 0.1% sample", "value": 26.6, "unit": "μm"}, {"measurement": "Lens elasticity effect (in words)", "setting": "C57BL/6J mice [1]; [4]", "value": "potent elasticity improving effect"}]}
{"smiles": "OCCOCCC1CCSS1", "note": "(centres unmarked) [Compound 7, 2-[2-(1,2-Dithiolan-3-yl)ethoxy]ethan-1-ol]", "values": [{"measurement": "Lens elasticity effect (in words)", "setting": "C57BL/6J mice [1]; 0.1% sample group", "value": "potent elasticity improving effect"}, {"measurement": "Lens elasticity improvement", "setting": "C57BL/6J mice [1]; 0.1% sample", "value": 41.4, "unit": "μm"}]}
{"smiles": "OCCCCC1CCSS1", "note": "(centres unmarked) [Compound 6, 4-(1,2-Dithiolan-3-yl)butan-1-ol]", "values": [{"measurement": "Lens elasticity improvement", "setting": "C57BL/6J mice [1]; 0.03% sample", "value": 40.0, "unit": "μm"}, {"measurement": "Lens elasticity improvement", "setting": "C57BL/6J mice [1]; 0.1% sample", "value": 58.9, "unit": "μm"}, {"measurement": "Lens elasticity effect (in words)", "setting": "C57BL/6J mice [1]; [4]", "value": "potent elasticity improving effect"}]}
{"smiles": "OCCCCCC1CCSS1", "note": "(centres unmarked) [Compound 3, 5-(1,2-Dithiolan-3-yl)pentan-1-ol]", "values": [{"measurement": "Lens elasticity improvement", "setting": "C57BL/6J mice [2]; 0.03% sample", "value": 39.9, "unit": "μm"}, {"measurement": "Lens elasticity improvement", "setting": "C57BL/6J mice [3]; 0.01% sample", "value": 21.5, "unit": "μm"}, {"measurement": "Lens elasticity improvement", "setting": "C57BL/6J mice [3]; 0.03% sample", "value": 47.3, "unit": "μm"}, {"measurement": "Lens elasticity improvement", "setting": "C57BL/6J mice [3]; 0.1% sample", "value": 60.1, "unit": "μm"}, {"measurement": "Lens elasticity effect (in words)", "setting": "C57BL/6J mice [3]; [5]", "value": "showed an elasticity improving effect"}]}
{"smiles": "OCCCCCC(S)CCS", "note": "(centres unmarked) [Compound 2, 6,8-Dimercaptooctan-1-ol]", "values": [{"measurement": "Lens elasticity effect (in words)", "setting": "C57BL/6J mice [3]; 0.03% sample group", "value": "potent elasticity improving effect"}, {"measurement": "Lens elasticity improvement", "setting": "C57BL/6J mice [3]; 0.03% sample", "value": 42.2, "unit": "μm"}]}
{"smiles": "OCCCCC[C@@H]1CCSS1", "note": "[Compound 4]", "values": [{"measurement": "Lens elasticity improvement", "setting": "C57BL/6J mice [2]; 0.01% sample", "value": 31.1, "unit": "μm"}, {"measurement": "Lens elasticity improvement", "setting": "C57BL/6J mice [2]; 0.03% sample", "value": 60.2, "unit": "μm"}, {"measurement": "Lens elasticity improvement", "setting": "C57BL/6J mice [2]; 0.1% sample", "value": 66.7, "unit": "μm"}, {"measurement": "Lens elasticity effect (in words)", "setting": "C57BL/6J mice [2]; [5]", "value": "showed an elasticity improving effect"}, {"measurement": "Irritation in anterior segment of the eye (in words)", "setting": "Japanese White rabbit; 0.01% (w/v) and 0.1% (w/v) eye drops", "value": "No irritation was observed"}, {"measurement": "Irritation Score of anterior segment of the eye: Anterior chamber flare", "setting": "Japanese White rabbit; 0.01% eye drop", "value": "—"}, {"measurement": "Irritation Score of anterior segment of the eye: Conjunctival edema", "setting": "Japanese White rabbit; 0.01% eye drop", "value": "—"}, {"measurement": "Irritation Score of anterior segment of the eye: Corneal angiogenesis", "setting": "Japanese White rabbit; 0.01% eye drop", "value": "—"}, {"measurement": "Irritation Score of anterior segment of the eye: Corneal opacity", "setting": "Japanese White rabbit; 0.01% eye drop", "value": "—"}, {"measurement": "Irritation Score of anterior segment of the eye: Discharge", "setting": "Japanese White rabbit; 0.01% eye drop", "value": "—"}, {"measurement": "Irritation Score of anterior segment of the eye: Iris", "setting": "Japanese White rabbit; 0.01% eye drop", "value": "—"}, {"measurement": "Irritation Score of anterior segment of the eye: Light reflex", "setting": "Japanese White rabbit; 0.01% eye drop", "value": "—"}, {"measurement": "Irritation Score of anterior segment of the eye: Conjunctival hyperemia", "setting": "Japanese White rabbit; 0.01% eye drop", "value": "—"}, {"measurement": "Irritation Score of anterior segment of the eye: Corneal epithelial disorder", "setting": "Japanese White rabbit; 0.01% eye drop", "value": "—"}, {"measurement": "Irritation Score of anterior segment of the eye: Anterior chamber flare", "setting": "Japanese White rabbit; 0.1% eye drop", "value": "—"}, {"measurement": "Irritation Score of anterior segment of the eye: Conjunctival edema", "setting": "Japanese White rabbit; 0.1% eye drop", "value": "—"}, {"measurement": "Irritation Score of anterior segment of the eye: Corneal angiogenesis", "setting": "Japanese White rabbit; 0.1% eye drop", "value": "—"}, {"measurement": "Irritation Score of anterior segment of the eye: Corneal opacity", "setting": "Japanese White rabbit; 0.1% eye drop", "value": "—"}, {"measurement": "Irritation Score of anterior segment of the eye: Discharge", "setting": "Japanese White rabbit; 0.1% eye drop", "value": "—"}, {"measurement": "Irritation Score of anterior segment of the eye: Iris", "setting": "Japanese White rabbit; 0.1% eye drop", "value": "—"}, {"measurement": "Irritation Score of anterior segment of the eye: Light reflex", "setting": "Japanese White rabbit; 0.1% eye drop", "value": "—"}, {"measurement": "Irritation Score of anterior segment of the eye: Conjunctival hyperemia", "setting": "Japanese White rabbit; 0.1% eye drop", "value": "—"}, {"measurement": "Irritation Score of anterior segment of the eye: Corneal epithelial disorder", "setting": "Japanese White rabbit; 0.1% eye drop", "value": "—"}]}
